In PMC5639602, “Role of microglial amylin receptors in mediating beta amyloid (Aβ)-induced inflammation” (Journal of Neuroinflammation, 2017):
“Also recorded” adds a separate entry of the source. Ends that are not written are not given here.

Key:
[1] = test system: hippocampal long-term potentiation; conditions: ref [20], [39]; cited from earlier work
Description: (§1) As a neuroendocrine hormone, amylin mediates glycemic regulation, energy balance control, and cognitive/motivational processes. Human amylin also modulates autoimmunity and innate inflammation through regulatory T cells. Amyloid precursor protein (APP) and Aβ interact with variety of G-protein-coupled receptors (GPCRs) including amylin receptors. Amylin receptors (AMYs) are a dimerized calcitonin receptor (CTR) with receptor activity-modifying proteins (RAMPs) and belong to class B GPCRs. We have previously shown that hAmylin and Aβ preferentially activate AMY3 recep ...

transgenic AD mice = conditions: systemic administration, ref [40], [41]; cited from earlier work
Description: as §1

caspase-1 in HFM = assay: Caspase-1 expression, fluorometric assay, human fetal microglia; type: cell-based
Procedure: (§2) Two different types of microglial, primary cultures of human fetal microglia and mouse microglial BV2 cell line, were used for in vitro testing of amylin receptor function. This approach provided confirmation of the presence of microglial amylin receptors across species and cross-validated our observations on the function of amylin receptors in both primary cell cultures and a frequently used cell line. Primary mixed glial cultures were prepared from 12- to 15-gestational-week fetuses as previously reported. Briefly, the meninges and blood vessels were removed and the brain tissue was washed in minimum essential medium and mechanically dissociated by repeated trituration through a 20-gauge needle. Cells were centrifuged at 1500g for 10 min and re-suspended in minimum essential medium with 10% fetal bovine serum. The cultures were grown in a 5% CO2 humidified incubator at 37 °C. […]
(§3) For cultured cell immunofluorescent staining, cells were plated on Lab-TEK chamber slide (ThermoFisher) and fixed with 4% paraformaldehyde (PAF) in PBS, then permeabilized with 0.3% Triton X-100 in PBS and blocked with 2% BSA + 10% goat serum for 1 h. […] Fluorescent microscopy images were acquired with an Axioplan-2 fluorescence microscope with AxioVision software (Carl Zeiss Ltd., Toronto, ON, Canada).

BV2 cells = assay: Aβ uptake and plaque-like structure formation in BV2 cells (thioflavin S); type: cell-based, mouse; conditions: BV2, 1 μM, 24 h, thioflavin S staining
Procedure: as §2, §3

[2] = test system: cytokine gene expression in HFM; assay: Cytokine RT-PCR array in human fetal microglia; type: cell-based; conditions: 1 μM, 6 h, vs untreated
Procedure: The PCR array for TNFα, IL1β, and IL23 gene expression used the RT^2 Profiler PCR Array system (96-well assay plate, SABiosciences) following product instruction. […] RNA was isolated with Rneasy Mini kit (Qiagen) as per the product instructions. For each PCR Array, 4 μg of total RNA were used to prepare cDNA with the appropriate first strand kit from SABiosciences. The cDNA was characterized on the iCycler® iQ Real-Time PCR System (Bio-Rad Laboratories) using the RT2 Profiler PCR Arrays. The resulting raw data were then analyzed using the PCR Array Data Analysis Template and expressed as gene expression fold-change after treatment compared to the control untreated HFM cultures.

caspase-1 in BV2 cells = assay: Caspase-1 expression in BV2 cells; type: cell-based, mouse
Procedure: as §2, §3

[3] = test system: human fetal microglia (HFM); amylin receptor; assay: Intracellular Ca2+ imaging (Fluo-8L-AM, confocal) in human fetal microglia; type: cell-based; conditions: 1 μM
Procedure: Two different types of microglial, primary cultures of human fetal microglia and mouse microglial BV2 cell line, were used for in vitro testing of amylin receptor function. […] Primary mixed glial cultures were prepared from 12- to 15-gestational-week fetuses as previously reported [21, 22]. Briefly, the meninges and blood vessels were removed and the brain tissue was washed in minimum essential medium and mechanically dissociated by repeated trituration through a 20-gauge needle. Cells were centrifuged at 1500g for 10 min and re-suspended in minimum essential medium with 10% fetal bovine serum. The cultures were grown in a 5% CO2 humidified incubator at 37 °C. After mixed glial cultures were completely confluent, human fetal microglia (HFM) were isolated by shaking flasks at 100 rpm (IKA KS-260, IKA Works, Wilmington, NC) for 1 h at 37 °C. The media was then collected and centrifuged at 2500 RCF for 5 min at 4 °C. Cell pellets were re-suspended in microglia plating media (MEM + 10% FBS + 1% penicillin/streptomycin). HFM were plated at a 2 × 10^5 cells per milliliter density, and microglia were allowed to attach overnight before further use for experiments. […] For all in vitro experiments, primary human fetal microglial cultures and BV2 cell cultures, each experiment was performed on a fresh batch of cell cultures and repeated a minimum of four times. Statistical analysis was performed on mean data.
Ca^2+ concentration were monitored with confocal microscopy as described previously [23, 24]. Briefly, HFMs were plated on glass coverslips pre-coated with poly-L-ornithine and incubated at 37 °C for 12–36 h. Then, incubated with 5 μM of membrane-permeant fluorescent Ca^2+-sensitive dye Fluo-8L-AM (AAT Bioquest, Inc., Sunnyvale, CA) for 40 min at room temperature (20–23 °C) within < 2 h before imaging. For Ca^2+ imaging, the superfusate of ion content similar to extracellular brain fluid thus contain the following: 130 mM NaCl, 4 mM KCl, 1 mM MgCl2, 2 mM CaCl2, 10 mM HEPES, and 10 mM glucose (pH 7.35) was applied at a rate of 3 ml/min using a roller pump (Watson-Marlow Alitea, Sin-Can, Calgary, AB, Canada). […] Fluorescence intensity was monitored with a FV-300 laser-scanning confocal microscope (Olympus FV300, Markham, Ontario, Canada) equipped with an argon laser (488 nm) and excitation/emission filters (FF02-520/28-25; Semrock, Inc.) for an emission wavelength at 514 nm, measured with a numerical aperture of 0.95 20× XLUMPlanF1 objective (Olympus). Images were acquired at scan rates of 1.25–1.43 per second using a 2–3× digital zoom at full-frame (512 × 512 pixel) resolution. Regions of interest were drawn around distinct cell bodies, and analysis of time courses of change in fluorescence intensity were generated with FluoView software (version 4.3; Olympus). […]

[4] = test system: NLRP3 in human fetal microglial (HFM) cultures; assay: NLRP3 immunostaining in human fetal microglia; type: cell-based; conditions: vs basal
Procedure: Two different types of microglial, primary cultures of human fetal microglia and mouse microglial BV2 cell line, were used for in vitro testing of amylin receptor function. This approach provided confirmation of the presence of microglial amylin receptors across species and cross-validated our observations on the function of amylin receptors in both primary cell cultures and a frequently used cell line. Primary mixed glial cultures were prepared from 12- to 15-gestational-week fetuses as previously reported. Briefly, the meninges and blood vessels were removed and the brain tissue was washed in minimum essential medium and mechanically dissociated by repeated trituration through a 20-gauge needle. Cells were centrifuged at 1500g for 10 min and re-suspended in minimum essential medium with 10% fetal bovine serum. The cultures were grown in a 5% CO2 humidified incubator at 37 °C. After mixed glial cultures were completely confluent, human fetal microglia (HFM) were isolated by shaking flasks at 100 rpm (IKA KS-260, IKA Works, Wilmington, NC) for 1 h at 37 °C. The media was then collected and centrifuged at 2500 RCF for 5 min at 4 °C. Cell pellets were re-suspended in microglia plating media (MEM + 10% FBS + 1% penicillin/streptomycin). HFM were plated at a 2 × 10^5 cells per milliliter density, and microglia were allowed to attach overnight before further use for experiments. BV2 cells (kindly provided by Dr. T. Trang, University of Calgary) were cultured in DMEM/F12 media with 10% FBS. For all in vitro experiments, primary human fetal microglial cultures and BV2 cell cultures, each experiment was performed on a fresh batch of cell cultures and repeated a minimum of four times. […]
as §3

AMY3 receptor subtype = conditions: ref [23]; cited from earlier work
Description: as §1

AMY1 = assay: cAMP in-cell Western, AMY1-expressing HEK293 cells; type: cell-based; conditions: 5 min
Description: (§4) In order to characterize the antagonist activity of cAC253 at subtypes of amylin receptors, we compared hAmylin-generated cAMP responses in stably expressed AMY1, AMY2, and AMY3 and CTR receptors in HEK293 cells and wild-type HEK (HEK-WT) cells (Additional file 1).
(§5) For in-cell Western blot cyclic adenosine monophosphate (cAMP) quantification, mouse monoclonal anti-cAMP (R&D Systems) was used as a primary antibody and IRDye 700 goat anti mouse antibody (LI-COR) was used as a secondary antibody. Plates were imaged using an Odyssey Infrared Imaging System (LI-COR), and the integrated intensity was normalized to the total cell number on the same well as previously described.
(§6) Amylin receptor subtypes stably expressed in human embryonic kidney (HEK293) cell-line were generated and characterized as described in a previous published article from our laboratory ( Fu et al., J. Biol. Chem. 2012). […]
(§7) The in-cell Western blot cyclic adenosinemonophosphate (cAMP) quantification was used as previously described (Fu et al., J Biol Chem. 2012). […] The cAMP was measured at 5 min after treatment, i.e., at 5 min after different concentration of hAmylin and/or cAC253 treatment, cells were fixed with 4% paraformaldehyde in PBS for 10 min. […] Plates were imaged using an Odyssey Infrared Imaging System (LI-COR), and the integrated intensity was measured. […]

AMY3 = assay: cAMP in-cell Western, AMY3-expressing HEK293 cells; type: cell-based; conditions: 5 min
Description: as §4, §5, §6, §7

CTR = assay: cAMP in-cell Western, CTR-expressing HEK293 cells; type: cell-based; conditions: 5 min
Description: as §4, §5, §6, §7

[5] = test system: HEK wild-type control cells; assay: cAMP in-cell Western, wild-type HEK cells; type: cell-based, human; conditions: 5 min
Description: as §4, §5
The in-cell Western blot cyclic adenosinemonophosphate (cAMP) quantification was used as previously described (Fu et al., J Biol Chem. 2012). Briefly, amylin receptor stable cells were plated at a density of 4x10^4 cells/well in a 96-well plate and cultured for 24 hours. On the day of experiment, culture media was replaced with serum free DMEM medium and further incubate for 6 h before treatment. The cAMP was measured at 5 min after treatment, i.e., at 5 min after different concentration of hAmylin and/or cAC253 treatment, cells were fixed with 4% paraformaldehyde in PBS for 10 min. […] Plates were imaged using an Odyssey Infrared Imaging System (LI-COR), and the integrated intensity was measured. […]

AMY2 = assay: cAMP in-cell Western, AMY2-expressing HEK293 cells; type: cell-based; conditions: 5 min
Description: as §4, §5, §6, §7

| Substance | Effect on hAmylin- and Aβ-induced depression of hippocampal long-term potentiation [1] | Amyloid burden in the brain (transgenic AD mice) | Efflux of Aβ across the blood brain barrier (transgenic AD mice) | Caspase-1 expression (caspase-1 in HFM) | Uptake of Aβ1–42 and formation of plaque-like structures (BV2 cells) | IL1β gene expression [2] | TNFα gene expression [2] | Caspase-1 expression (caspase-1 in BV2 cells) | Time to Ca2+ increase after entry of the peptide into the imaging chamber ([3]; 30 s application) | NLRP3 level [4] | NLRP3 level ([4]; listed as Aβ) | Effect on hippocampal long-term potentiation [1] | Activation of AMY3 receptor subtype with downstream MAPK and Akt signaling (AMY3 receptor subtype) | Receptor activation (cAMP) (AMY1) | Receptor activation (cAMP) (AMY3) | Receptor activation (cAMP) (CTR) | Time of return of Ca2+ to base line ([3]; 30 s application) | Intracellular Ca2+ change ([3]; bath application 30 s, Fluo-8, pooled n = 123 HFM in 12 culture wells, four batches) | cAMP response [5] | Receptor activation (cAMP) (AMY2) |
| --- | --- | --- | --- | --- | --- | --- | --- | --- | --- | --- | --- | --- | --- | --- | --- | --- | --- | --- | --- | --- |
| pramlintide | attenuate | reduce amyloid burden in the brain | promoting an efflux of Aβ across the blood brain barrier | – | – | – | – | – | – | – | – | – | – | – | – | – | – | – | – | – |
| Aβ1–42: soluble oligomeric amyloid beta 1–42 peptide from rPeptide | – | – | – | increased | uptake of the peptide into the microglia and formation of plaque-like structures on the cell surface; also recorded: taken up into the cells and formed plaque-like structures | increases | increases | increased | ≤ 1 min | Increased activation of the inflammasome, NLRP3 | increased significantly | depression of hippocampal long-term potentiation | preferentially activate AMY3 receptor subtype | – | – | – | – | – | – | – |
| hAmylin: human amylin, the endogenous peptide that binds to the amylin receptor; purchased from American Peptide (KCNTATCATQRLANFLVHSSNNFGAILSSTNVGSNTY; not fully specified (C-terminus, bridges); cysteine pairing not given here; UniProt P10997 34-70, looked up) | – | – | – | increased | – | increases | increases | increased | ≤ 1 min | increased significantly; also recorded: Increased activation of the inflammasome, NLRP3 | – | depression of hippocampal long-term potentiation | preferentially activate AMY3 receptor subtype | activated | activated | not significantly | ≤ 2 min | robust Ca^2+ increase | not significantly | not significantly |
